Values quoted from earlier work, collected in patent US20090254175A1, “Valved stent for chronic venous insufficiency” (priority 2008, published 2009).

solubility in acetic acid	solubility in alcohol	solubility in acetone and glacial acetic acid (acetone and glacial acetic acid, compared with alcohol)	solubility in water (water)	Structure (SMILES)
soluble	soluble	–	–	C[C@H](CCC(=O)O)[C@H]1CC[C@H]2[C@@H]3[C@@H](O)C[C@@H]4C[C@H](O)CC[C@]4(C)[C@H]3CC[C@]12C [ursodeoxycholic acid, reference compound]
soluble	soluble	to a lesser extent	sparingly soluble	C[C@H](CCC(=O)O)[C@H]1CC[C@H]2[C@@H]3CC[C@@H]4C[C@H](O)CC[C@]4(C)[C@H]3C[C@H](O)[C@]12C [Deoxycholic acid]
